Test results from PubChem BioAssay AID1963862 (Molecular Pharmacology Branch, DTP, NCI, 2024).
pIC50: −log10 of the molar value.

System: KRAS patient-derived spheroids with HUVEC/MSC, viability
Test: Anticancer human tumor 941728-121-R-J1-PDC patient-derived lung adenocarcinoma cell line growth inhibition [KRAS2]
Settings: for pIC50: curve of first compound; for viability, T/C: stronger effect = lower value
In short: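 Combination screen of spheroid viability in tumor-cell co-cultures with endothelial (HUVEC) and mesenchymal stem cell stroma. Each agent was tested in half-log dilutions, topping at clinical Cmax or at 10 microM without a known Cmax.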

[1] = second compound 0.1 µM, first compound 0.000316 µM
[2] = second compound 0.1 µM, first compound 0.001 µM
[3] = second compound 0.1 µM, first compound 0.00316 µM
[4] = second compound 0.1 µM, first compound 0.01 µM
[5] = second compound 0.1 µM, first compound 0.0316 µM
[6] = second compound 0.316 µM, first compound 0.000316 µM
[7] = second compound 0.316 µM, first compound 0.001 µM
[8] = second compound 0.316 µM, first compound 0.00316 µM
[9] = second compound 0.316 µM, first compound 0.01 µM
[10] = second compound 0.316 µM, first compound 0.0316 µM
[11] = second compound 1 µM, first compound 0.000316 µM
[12] = second compound 1 µM, first compound 0.001 µM
[13] = second compound 1 µM, first compound 0.00316 µM
[14] = second compound 1 µM, first compound 0.01 µM
[15] = second compound 1 µM, first compound 0.0316 µM
[16] = second compound 3.16 µM, first compound 0.000316 µM
[17] = second compound 3.16 µM, first compound 0.001 µM
[18] = second compound 3.16 µM, first compound 0.00316 µM
[19] = second compound 3.16 µM, first compound 0.01 µM
[20] = second compound 3.16 µM, first compound 0.0316 µM
[21] = second compound 10 µM, first compound 0.000316 µM
[22] = second compound 10 µM, first compound 0.001 µM
[23] = second compound 10 µM, first compound 0.00316 µM
[24] = second compound 10 µM, first compound 0.01 µM
[25] = second compound 10 µM, first compound 0.0316 µM
[26] = second compound 0.1 µM, first compound 0.1 µM
[27] = second compound 0.316 µM, first compound 0.1 µM
[28] = second compound 1 µM, first compound 0.1 µM
[29] = second compound 3.16 µM, first compound 0.1 µM
[30] = second compound 10 µM, first compound 0.1 µM
[31] = second compound 0.1 µM, first compound 0.316 µM
[32] = second compound 0.1 µM, first compound 1 µM
[33] = second compound 0.1 µM, first compound 3.16 µM
[34] = second compound 0.1 µM, first compound 10 µM
[35] = second compound 0.316 µM, first compound 0.316 µM
[36] = second compound 0.316 µM, first compound 1 µM
[37] = second compound 0.316 µM, first compound 3.16 µM
[38] = second compound 0.316 µM, first compound 10 µM
[39] = second compound 1 µM, first compound 0.316 µM
[40] = second compound 1 µM, first compound 1 µM
[41] = second compound 1 µM, first compound 3.16 µM
[42] = second compound 1 µM, first compound 10 µM
[43] = second compound 3.16 µM, first compound 0.316 µM
[44] = second compound 3.16 µM, first compound 1 µM
[45] = second compound 3.16 µM, first compound 3.16 µM
[46] = second compound 3.16 µM, first compound 10 µM
[47] = second compound 10 µM, first compound 0.316 µM
[48] = second compound 10 µM, first compound 1 µM
[49] = second compound 10 µM, first compound 3.16 µM
[50] = second compound 10 µM, first compound 10 µM
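Further: spheroids exposed to agents for seven days before readout.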

CC(=O)Nc1cccc(-n2c(=O)n(C3CC3)c(=O)c3c(Nc4ccc(I)cc4F)n(C)c(=O)c(C)c32)c1 + CNCc1ccccc1-c1csc(C(C)Nc2nc(C)nc3cc(OC)c(OC)cc23)c1
pIC50 (second compound 0.1 µM): 9.92
pIC50 (second compound 0.316 µM): > 10.00
pIC50 (second compound 1 µM): > 10.00
pIC50 (second compound 3.16 µM): > 10.00
pIC50 (second compound 10 µM): > 10.00
viability, T/C (second compound 0.1 µM, first compound 0.0001 µM): 51.3%
viability, T/C [1]: 46.8%
viability, T/C [2]: 38.1%
viability, T/C [3]: 37.7%
viability, T/C [4]: 35.7%
viability, T/C [5]: 27.9%
viability, T/C (second compound 0.316 µM, first compound 0.0001 µM): 44.4%
viability, T/C [6]: 44.1%
viability, T/C [7]: 34.2%
viability, T/C [8]: 31.8%
viability, T/C [9]: 30.5%
viability, T/C [10]: 21.9%
viability, T/C (second compound 1 µM, first compound 0.0001 µM): 35.3%
viability, T/C [11]: 33%
viability, T/C [12]: 26.8%
viability, T/C [13]: 23%
viability, T/C [14]: 14%
viability, T/C [15]: 7.52%
viability, T/C (second compound 3.16 µM, first compound 0.0001 µM): 0.3%
viability, T/C [16]: 0.14%
viability, T/C [17]: 0.76%
viability, T/C [18]: 0.17%
viability, T/C [19]: 0.16%
viability, T/C [20]: 0.25%
viability, T/C (second compound 10 µM, first compound 0.0001 µM): 0.16%
viability, T/C [21]: 0.16%
viability, T/C [22]: 0.17%
viability, T/C [23]: 0.15%
viability, T/C [24]: 0.14%
viability, T/C [25]: 0.26%

CC(C)n1nc(-c2ccc3oc(N)nc3c2)c2c(N)ncnc21 + CNCc1ccccc1-c1csc(C(C)Nc2nc(C)nc3cc(OC)c(OC)cc23)c1
pIC50 (second compound 0.1 µM): 9.18
pIC50 (second compound 0.316 µM): > 9.50
pIC50 (second compound 1 µM): > 9.50
pIC50 (second compound 3.16 µM): > 9.50
pIC50 (second compound 10 µM): > 9.50
viability, T/C [1]: 49%
viability, T/C [2]: 59.2%
viability, T/C [3]: 37.3%
viability, T/C [4]: 34.3%
viability, T/C [5]: 34.5%
viability, T/C [26]: 31.4%
viability, T/C [6]: 44.7%
viability, T/C [7]: 45.2%
viability, T/C [8]: 35.9%
viability, T/C [9]: 23.1%
viability, T/C [10]: 24.1%
viability, T/C [27]: 16.6%
viability, T/C [11]: 34.8%
viability, T/C [12]: 29.3%
viability, T/C [13]: 15.9%
viability, T/C [14]: 13.6%
viability, T/C [15]: 11%
viability, T/C [28]: 7.65%
viability, T/C [16]: 0.15%
viability, T/C [17]: 0.16%
viability, T/C [18]: 0.1%
viability, T/C [19]: 0.11%
viability, T/C [20]: 0.08%
viability, T/C [29]: 0.13%
viability, T/C [21]: 0.58%
viability, T/C [22]: 0.43%
viability, T/C [23]: 2.78%
viability, T/C [24]: 0.67%
viability, T/C [25]: 0.67%
viability, T/C [30]: 0.72%

CC1(C)CCC(CN2CCN(c3ccc(C(=O)NS(=O)(=O)c4ccc(NCC5CCOCC5)c([N+](=O)[O-])c4)c(Oc4cnc5[nH]ccc5c4)c3)CC2)=C(c2ccc(Cl)cc2)C1 + CNCc1ccccc1-c1csc(C(C)Nc2nc(C)nc3cc(OC)c(OC)cc23)c1
pIC50 (second compound 0.1 µM): > 7.50
pIC50 (second compound 0.316 µM): > 7.50
pIC50 (second compound 1 µM): > 7.50
pIC50 (second compound 3.16 µM): > 7.50
pIC50 (second compound 10 µM): > 7.50
viability, T/C [5]: 41.7%
viability, T/C [26]: 41.8%
viability, T/C [31]: 41.4%
viability, T/C [32]: 39.2%
viability, T/C [33]: 6.99%
viability, T/C [34]: 4.92%
viability, T/C [10]: 39.8%
viability, T/C [27]: 36%
viability, T/C [35]: 33.4%
viability, T/C [36]: 35.1%
viability, T/C [37]: 7.18%
viability, T/C [38]: 2.59%
viability, T/C [15]: 27%
viability, T/C [28]: 31.7%
viability, T/C [39]: 23.2%
viability, T/C [40]: 22.6%
viability, T/C [41]: 4.9%
viability, T/C [42]: 1.48%
viability, T/C [20]: 0.19%
viability, T/C [29]: 0.17%
viability, T/C [43]: 0.27%
viability, T/C [44]: 0.69%
viability, T/C [45]: 0.04%
viability, T/C [46]: 0.12%
viability, T/C [25]: 0.11%
viability, T/C [30]: 0.11%
viability, T/C [47]: 0.09%
viability, T/C [48]: 0.33%
viability, T/C [49]: 0.1%
viability, T/C [50]: 0.12%

COC(=O)c1ccc2c(C(=Nc3ccc(N(C)C(=O)CN4CCN(C)CC4)cc3)c3ccccc3)c(O)[nH]c2c1 + CNCc1ccccc1-c1csc(C(C)Nc2nc(C)nc3cc(OC)c(OC)cc23)c1
pIC50 (second compound 0.1 µM): 5.76
pIC50 (second compound 0.316 µM): > 7.50
pIC50 (second compound 1 µM): > 7.50
pIC50 (second compound 3.16 µM): > 7.50
pIC50 (second compound 10 µM): > 7.50
viability, T/C [5]: 59.9%
viability, T/C [26]: 49.5%
viability, T/C [31]: 47.1%
viability, T/C [32]: 63.4%
viability, T/C [33]: 42.4%
viability, T/C [34]: 35.8%
viability, T/C [10]: 46.4%
viability, T/C [27]: 44.1%
viability, T/C [35]: 41.5%
viability, T/C [36]: 35%
viability, T/C [37]: 9.64%
viability, T/C [38]: 20.3%
viability, T/C [15]: 22.6%
viability, T/C [28]: 24.5%
viability, T/C [39]: 19.5%
viability, T/C [40]: 25.6%
viability, T/C [41]: 3.56%
viability, T/C [42]: 5.39%
viability, T/C [20]: 0.42%
viability, T/C [29]: 0.43%
viability, T/C [43]: 0.22%
viability, T/C [44]: 0.73%
viability, T/C [45]: 0.79%
viability, T/C [46]: 0.62%
viability, T/C [25]: 0.47%
viability, T/C [30]: 0.1%
viability, T/C [47]: 0.08%
viability, T/C [48]: 0.1%
viability, T/C [49]: 0.11%
viability, T/C [50]: 0.15%

COc1cc(Nc2ncc3c(n2)-c2ccc(Cl)cc2C(c2c(F)cccc2OC)=NC3)ccc1C(=O)O + CNCc1ccccc1-c1csc(C(C)Nc2nc(C)nc3cc(OC)c(OC)cc23)c1
pIC50 (second compound 0.1 µM): > 7.50
pIC50 (second compound 0.316 µM): > 7.50
pIC50 (second compound 1 µM): > 7.50
pIC50 (second compound 3.16 µM): > 7.50
pIC50 (second compound 10 µM): > 7.50
viability, T/C [5]: 48.4%
viability, T/C [26]: 47.5%
viability, T/C [31]: 37.5%
viability, T/C [32]: 45.4%
viability, T/C [33]: 47.6%
viability, T/C [34]: 34.7%
viability, T/C [10]: 44.2%
viability, T/C [27]: 36%
viability, T/C [35]: 32.6%
viability, T/C [36]: 32.2%
viability, T/C [37]: 36.4%
viability, T/C [38]: 33.6%
viability, T/C [15]: 31.4%
viability, T/C [28]: 28.4%
viability, T/C [39]: 27.3%
viability, T/C [40]: 27.5%
viability, T/C [41]: 25.6%
viability, T/C [42]: 15.1%
viability, T/C [20]: 0.4%
viability, T/C [29]: 0.28%
viability, T/C [43]: 0.18%
viability, T/C [44]: 0.33%
viability, T/C [45]: 0.26%
viability, T/C [46]: 4.13%
viability, T/C [25]: 0.15%
viability, T/C [30]: 0.22%
viability, T/C [47]: 0.1%
viability, T/C [48]: 0.1%
viability, T/C [49]: 0.11%
viability, T/C [50]: 0.5%

COc1cc2nccc(Oc3ccc(NC(=O)C4(C(=O)Nc5ccc(F)cc5)CC4)cc3)c2cc1OC + CNCc1ccccc1-c1csc(C(C)Nc2nc(C)nc3cc(OC)c(OC)cc23)c1
pIC50 (second compound 0.1 µM): 7.07
pIC50 (second compound 0.316 µM): > 7.50
pIC50 (second compound 1 µM): > 7.50
pIC50 (second compound 3.16 µM): > 7.50
pIC50 (second compound 10 µM): > 7.50
viability, T/C [5]: 59.8%
viability, T/C [26]: 46.5%
viability, T/C [31]: 42.2%
viability, T/C [32]: 39.7%
viability, T/C [33]: 19.2%
viability, T/C [34]: 39.2%
viability, T/C [10]: 39%
viability, T/C [27]: 34.5%
viability, T/C [35]: 28.8%
viability, T/C [36]: 21.3%
viability, T/C [37]: 12.4%
viability, T/C [38]: 25.4%
viability, T/C [15]: 16.1%
viability, T/C [28]: 21%
viability, T/C [39]: 10.2%
viability, T/C [40]: 5.77%
viability, T/C [41]: 2.51%
viability, T/C [42]: 8.64%
viability, T/C [20]: 0.1%
viability, T/C [29]: 0.43%
viability, T/C [43]: 0.05%
viability, T/C [44]: 0.1%
viability, T/C [45]: 0.03%
viability, T/C [46]: 0.12%
viability, T/C [25]: 0.36%
viability, T/C [30]: 0.07%
viability, T/C [47]: 0.08%
viability, T/C [48]: 0.08%
viability, T/C [49]: 0.31%
viability, T/C [50]: 0.21%
